{
  "source": "paper PMC4291348",
  "about": "“A Continuous Enzyme-Coupled Assay for Triphosphohydrolase Activity of HIV-1 Restriction Factor SAMHD1” (Antimicrobial Agents and Chemotherapy, 2014)",
  "key": {"SAMHD1": {"system": "T1, SAMHD1", "T1 construct": "The catalytic domain of SAMHD1 (residues 115 to 626) was expressed and purified as previously described; made in house", "assay": "IEX-HPLC assay of SAMHD1 triphosphohydrolase activity", "assay_type": "biochemical, human", "settings": "0.2 mM GTP activated, 1 mM dATP, three enzyme concentrations 2.5, 5, 7.5 µM", "experimental": "IEX-HPLC assay of SAMHD1 Triphosphohydrolase activity\nIn a typical assay 2-10 µM SAMHD1 was incubated with 0.2 mM GTP activator and 1mM dNTP as substrate in Reaction buffer, 20mM Tris-HCl, 150 mM NaCl, 5 mM MgCl2, 2 mM TCEP (pH 7.5). The reaction was allowed to proceed and samples withdrawn at timed intervals up to 5 minutes and terminated by 10 fold dilution into 18.0% acetonitrile, 25mM Tris-HCl, 1 mM EDTA pH 8.0. The nucleotide hydrolysis reactions were analysed by anion exchange HPLC using a DNA-PAC100 (4 x 50mm) column (Dionex). The column was equilibrated at 30°C at 1 mL/min in 25mM Tris-HCl, 0.5% acetonitrile pH 8.0 (Buffer A). […] Absorbance data from the column eluent was continuously monitored between 200-400nm (2 nm interval) using MD-2010 photodiode array detector (JASCO). Peak integration of the absorbance data recorded at 260 nm was used to quantify the amount of substrate and products during at each time point of the reaction. Initial rates of dNTP hydrolysis were determined from the linear part of plots of substrate against time.\nSupplementary Figure S1 - HPLC traces of 0.2 mM GTP activated SAMHD1 hydrolysis of 1 mM dATP. […] Inset, kcat was determined by linear regression of Kapp over three enzyme concentrations, 2.5 µM, 5 µM and 7.5\nµM. Error bars represent the SEM of three independent measurements recorded at each substrate concentration. […]"}, "[1]": {"molecular_target": "T2, SAMHD1 (residues 115 to 626) (Homo sapiens, UniProt Q9Y3Z3)", "T2 construct": "The catalytic domain of SAMHD1 (residues 115 to 626) was expressed and purified as previously described; made in house", "T2 sequence (Q9Y3Z3 115-626)": "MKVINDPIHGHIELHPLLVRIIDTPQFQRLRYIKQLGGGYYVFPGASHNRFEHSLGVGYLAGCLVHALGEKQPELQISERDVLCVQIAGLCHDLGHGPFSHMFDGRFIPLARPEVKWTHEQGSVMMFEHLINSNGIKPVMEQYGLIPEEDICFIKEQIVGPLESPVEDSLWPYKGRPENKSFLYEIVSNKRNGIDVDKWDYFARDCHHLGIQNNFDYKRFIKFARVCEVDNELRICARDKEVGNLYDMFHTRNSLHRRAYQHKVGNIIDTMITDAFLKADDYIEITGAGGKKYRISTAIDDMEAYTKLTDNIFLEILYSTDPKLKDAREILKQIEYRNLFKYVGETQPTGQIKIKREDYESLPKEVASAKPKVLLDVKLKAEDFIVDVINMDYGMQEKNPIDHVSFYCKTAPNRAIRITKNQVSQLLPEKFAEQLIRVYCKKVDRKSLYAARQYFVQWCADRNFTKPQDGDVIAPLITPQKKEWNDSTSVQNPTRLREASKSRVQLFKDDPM", "assay": "Continuous enzyme-coupled (Ppx1 / MDCC-PBP) real-time assay of SAMHD1 triphosphohydrolase activity", "assay_type": "biochemical", "settings": "GTP activator 0.2 mM, 25°C", "experimental": "The steady-state kinetics of SAMHD1 were determined by a coupled-enzyme assay using Ppx1 and a fluorescent phosphate biosensor, MDCC-PBP. The reactions were set up in 20-μl volumes in 384-well low-protein-binding microplates (Corning, USA), and the time-dependent fluorescence signal was measured using a Tecan Saffire^2 multiwell plate reader (Männedorf, Switzerland). Solutions containing SAMHD1 (residues 115 to 626), Ppx1, MDCC-PBP, an activator, and an inhibitor (if present) were incubated for 5 min at 25°C before the reaction was initiated by the addition of the substrate. The final concentrations were 100 nM SAMHD1, 10 nM Ppx1, and 40 μM MDCC-PBP. Depending on the experiment, the concentration of the substrate, the activator, or the inhibitor varied while the substrate and/or the activator was held constant at 1 mM and 0.2 mM, respectively. The fluorescence intensity was recorded at 430 nm for excitation and 465 nm for emission wavelengths, with a 7-nm slit width, at 8- to 10-s time intervals over a period of 10 to 30 min. The standard curves were obtained by incubating 40 μM MDCC-PBP with different concentrations of phosphate (Pi) and measuring the fluorescence, as discussed above. The fluorescence response was linear and in the range of 0 to 20 μM Pi.\nThe steady-state rates were obtained from the time courses of Pi formation by linear regression of the data points in the linear phase of the reaction. Rates were divided by the SAMHD1 concentration and were plotted versus the activator, substrate, or inhibitor concentration. Apparent dissociation constants for the activator (KA) or the substrate binding (KS) and the catalytic constant (kcat) were determined by nonlinear least-squares fitting using either a hyperbolic or a Hill-function equation in the software package GraFit 7.0.3 (Erithacus Software, United Kingdom) ([22]). […] Data from the three different experiments were analyzed by a least-squares fit using the equation for competitive inhibition. The fits for the three data sets yielded invariant values for the inhibition constants (Ki), supporting a competitive mode of inhibition. All measurements were performed in triplicate in the reaction buffer."}},
  "data": [
    {"smiles": "Nc1ncnc2c1ncn2[C@H]1C[C@H](O)[C@@H](COP(=O)(O)OP(=O)(O)OP(=O)(O)O)O1", "note": "[dATP]", "values": [
      {"measurement": "kcat", "setting": "SAMHD1", "result": 0.99, "unit": "s⁻¹"},
      {"measurement": "KS, apparent dissociation constant for substrate binding", "setting": "[1]", "result": "42.1 ± 6.9", "unit": "µM"},
      {"measurement": "kcat", "setting": "[1]", "result": "0.94 ± 0.06", "unit": "s⁻¹"}
    ]}
  ]
}
